According to article PMC12869243, “Urate-lowering effect of delphinidin-3-glucoside in red kidney beans via binding to the FAD site of the XO enzyme” (Journal of Advanced Research, 2025):

Legend:
xanthine oxidase (XO) [1] = target: T1, xanthine oxidase (XO) (Bos taurus, UniProt P80457)
T1 construct: gene XDH

xanthine oxidase (XO) [2] = target: T1, xanthine oxidase (XO); test: SPR (Biacore T200, CM5 chip, immobilised XO, steady-state analysis); also lowers uric acid production by purified XO (UHPLC-MS); format: binding

T1 sequence (P80457 2-1332): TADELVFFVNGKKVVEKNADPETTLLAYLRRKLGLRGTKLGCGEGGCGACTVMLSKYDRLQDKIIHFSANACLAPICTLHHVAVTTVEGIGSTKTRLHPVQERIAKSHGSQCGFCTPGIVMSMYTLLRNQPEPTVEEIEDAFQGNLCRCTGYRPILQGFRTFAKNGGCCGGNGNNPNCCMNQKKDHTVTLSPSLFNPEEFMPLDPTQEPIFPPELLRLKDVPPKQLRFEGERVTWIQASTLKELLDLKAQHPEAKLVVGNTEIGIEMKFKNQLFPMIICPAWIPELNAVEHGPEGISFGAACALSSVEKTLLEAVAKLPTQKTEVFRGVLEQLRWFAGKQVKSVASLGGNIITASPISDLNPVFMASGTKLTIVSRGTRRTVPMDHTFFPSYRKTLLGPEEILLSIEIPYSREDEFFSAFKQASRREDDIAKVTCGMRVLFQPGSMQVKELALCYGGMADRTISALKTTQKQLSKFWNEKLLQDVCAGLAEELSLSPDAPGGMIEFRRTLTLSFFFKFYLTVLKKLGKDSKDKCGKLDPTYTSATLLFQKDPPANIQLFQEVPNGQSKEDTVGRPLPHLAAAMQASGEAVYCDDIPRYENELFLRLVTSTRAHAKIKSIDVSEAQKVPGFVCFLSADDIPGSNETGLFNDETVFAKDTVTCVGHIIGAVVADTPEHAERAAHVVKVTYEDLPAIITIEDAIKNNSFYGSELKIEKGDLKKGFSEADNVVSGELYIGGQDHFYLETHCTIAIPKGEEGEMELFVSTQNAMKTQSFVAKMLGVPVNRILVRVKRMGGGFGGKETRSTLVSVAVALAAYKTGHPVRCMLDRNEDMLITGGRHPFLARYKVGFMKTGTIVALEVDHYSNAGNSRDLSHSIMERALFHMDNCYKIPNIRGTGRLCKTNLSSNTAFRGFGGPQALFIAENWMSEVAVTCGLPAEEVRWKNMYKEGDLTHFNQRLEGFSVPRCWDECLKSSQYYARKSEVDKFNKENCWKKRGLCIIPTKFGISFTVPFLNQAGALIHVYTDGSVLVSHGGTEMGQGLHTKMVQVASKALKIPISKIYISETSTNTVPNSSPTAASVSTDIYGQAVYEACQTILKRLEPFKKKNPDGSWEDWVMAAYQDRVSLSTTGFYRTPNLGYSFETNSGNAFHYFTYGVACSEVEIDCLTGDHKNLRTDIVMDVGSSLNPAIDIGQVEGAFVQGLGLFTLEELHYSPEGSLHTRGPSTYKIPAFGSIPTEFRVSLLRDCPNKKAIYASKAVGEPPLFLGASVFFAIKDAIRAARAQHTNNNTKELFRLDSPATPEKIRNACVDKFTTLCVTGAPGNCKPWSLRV

SMILES	XO reaction-UHPLC/MS assay of uric acid production from xanthine, AP at 100 μM a (xanthine oxidase (XO) [1])	Kd (xanthine oxidase (XO) [2])
Oc1ncnc2[nH]ncc12 [AP, allopurinol]	We observed a significant reduction in uric acid levels in the AP treated group, a potent purine-like XOI	–
OC[C@H]1O[C@@H](Oc2cc3c(O)cc(O)cc3[o+]c2-c2cc(O)c(O)c(O)c2)[C@H](O)[C@@H](O)[C@@H]1O [Dp-3G, delphinidin-3-glucoside]	–	250 nM
